Laboratory results from patent US8367328B2, “Method for synthesizing DNA” (Takara Bio Inc., priority 1998, dated 2013).

Molecular target: T1, Taq DNA Polymerase (Thermus aquaticus, UniProt P19821)
T1 construct: purchased Takara Shuzo Co., Ltd
Assay: PCR with Taq DNA Polymerase in the presence of cationic complexes
Type: biochemical
Settings: for Amount of amplified DNA relative to No Addition (=1), Taq: 100 pg E. coli JM109 genomic DNA, primers Eco1/Eco2, 30 cycles 98°C 5 s–68°C 2 min, FM-BIO 100
Description: Using hexaamminecobalt (III) chloride ([Co(NH3)6]Cl3) (manufactured by Sigma), tris(ethylenediamine)cobalt (III) chloride ([Co(C2H8N2)3]Cl3) (manufactured by Aldrich), or tris(ethylenediamine)rhodium (III) trichloride•trihydrate ([Rh(C2H8N2)3]Cl3.3H2O) (manufactured by Aldrich), the effects on the amplification reaction by various kinds of DNA polymerases were examined. As the DNA polymerases, TaKaRa Taq DNA Polymerase (hereinafter referred to as “Taq DNA Polymerase” manufactured by Takara Shuzo Co., Ltd.), Pyrobest DNA Polymerase (manufactured by Takara Shuzo Co., Ltd.) and Ex Taq DNA Polymerase (manufactured by Takara Shuzo Co., Ltd.) were used.
A reaction mixture comprising Escherichia coli JM109 genomic DNA as a template, primers Eco1 and Eco2 as a primer pair, and DNA polymerase was prepared, and PCR was carried out. The compositions of the reaction mixture for each enzyme are as follows.
5 μl of buffer for 10×Taq PCR buffer (manufactured by Takara Shuzo Co., Ltd.), 0.2 mM each of dATP, dCTP, dGTP and dTTP, 1.25 U of Taq DNA Polymerase, 100 pg of Escherichia coli JM109 genomic DNA, and 10 pmol each of primers Eco1 and Eco2 (a final volume being 50 μl).
Further, an aqueous solution of the above-mentioned complexes each so as to have a final concentration of 50 μM, 100 μM, or 200 μM was added to the above reaction mixture.
The reaction was carried out in Fast mode by using TaKaRa PCR Thermal Cycler Personal (manufactured by Takara Shuzo Co., Ltd.). The reaction conditions are as follows. When using Taq DNA Polymerase and Pyrobest DNA Polymerase, the reaction in 30 cycles was carried out for each of these reaction mixtures, wherein one cycle of reaction comprises a process consisting of 98° C., 5 seconds—68° C., 2 minutes, and when using ExTaq DNA Polymerase, the reaction in 30 cycles was carried out for each of these reaction mixtures, wherein one cycle of reaction comprises a process consisting of 98° C., 5 seconds—68° C., 1 minute. After the termination of the reaction, 5 μl of the resulting reaction mixture was subjected to electrophoresis on 2% agarose gel containing ethidium bromide in an amount of 0.00005%. The gel after the electrophoresis was subjected to ultraviolet irradiation to visualize the band ascribed to the amplified product, whereby an amplified fragment was confirmed. The amount of amplified DNA was numerically explained by using a fluorescent image analyzer FM-BIO 100 (manufactured by Takara Shuzo Co., Ltd.).
The DNA polymerases used and the composition for the reaction mixture were similar to those in Example 17, except for the cationic complex, where in cases of using Taq DNA Polymerase and Pyrobest DNA Polymerase, hexaamminecobalt (III) chloride was added so as to have a final concentration of 100 μM, and in a case of using ExTaq DNA Polymerase, hexaamminecobalt (III) chloride was added so as to have a final concentration of 50 μM, respectively.
The reaction was carried out in Fast mode by using TaKaRa PCR Thermal Cycler Personal. The reaction conditions are as follows. When using Taq DNA Polymerase and Pyrobest DNA Polymerase, the reaction in 30 cycles was carried out, wherein one cycle of reaction comprises a process consisting of 98° C., […], 60 seconds or 80 seconds or 100 seconds or 120 seconds. When using ExTaq DNA Polymerase, the reaction in 30 cycles was carried out, wherein one cycle of reaction comprises a process consisting of 98° C., 5 seconds—68° C., 30 seconds or 40 seconds or 50 seconds or 60 seconds.
On the other hand, as a control, the time period or number of cycles for annealing and extension reaction were determined so as to obtain the same amount of the amount of amplified product for one without addition of the cationic complex mentioned above.
After the termination of the reaction, 5 μL of the resulting reaction mixture was subjected to electrophoresis on 2% agarose gel containing ethidium bromide in an amount of 0.00005%. […]

T1 sequence (P19821 whole entry): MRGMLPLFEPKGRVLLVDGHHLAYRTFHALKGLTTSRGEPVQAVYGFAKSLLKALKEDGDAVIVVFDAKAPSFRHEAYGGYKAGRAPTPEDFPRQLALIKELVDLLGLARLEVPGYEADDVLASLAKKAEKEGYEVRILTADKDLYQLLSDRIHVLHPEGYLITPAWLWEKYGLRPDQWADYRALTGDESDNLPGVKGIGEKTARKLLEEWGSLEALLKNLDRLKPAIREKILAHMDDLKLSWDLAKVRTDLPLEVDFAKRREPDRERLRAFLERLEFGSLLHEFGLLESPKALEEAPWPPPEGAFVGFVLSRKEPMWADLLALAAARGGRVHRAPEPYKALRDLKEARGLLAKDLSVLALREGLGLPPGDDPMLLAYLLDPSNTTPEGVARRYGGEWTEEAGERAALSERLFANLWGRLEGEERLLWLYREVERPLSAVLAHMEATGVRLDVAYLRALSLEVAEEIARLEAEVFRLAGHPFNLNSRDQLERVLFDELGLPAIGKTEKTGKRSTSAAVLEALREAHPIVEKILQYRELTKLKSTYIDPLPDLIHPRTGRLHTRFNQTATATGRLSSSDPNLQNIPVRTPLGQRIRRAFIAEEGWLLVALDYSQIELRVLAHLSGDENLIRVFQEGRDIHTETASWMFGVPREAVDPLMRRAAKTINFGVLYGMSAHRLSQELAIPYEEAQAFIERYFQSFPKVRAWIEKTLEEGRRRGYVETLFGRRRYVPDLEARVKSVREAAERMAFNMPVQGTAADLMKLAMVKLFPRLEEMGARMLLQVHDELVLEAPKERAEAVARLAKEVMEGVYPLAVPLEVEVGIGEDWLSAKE

SMILES	Amount of amplified DNA relative to No Addition (=1), Taq (complex 50 μM)	Amount of amplified DNA relative to No Addition (=1), Taq (complex 100 μM)	Amount of amplified DNA relative to No Addition (=1), Taq (complex 200 μM)	Amplification with one-half the usual enzyme amount versus usual amount without addition (Taq 0.625 U + 100 μM complex vs 1.25 U without addition)	Amplification of desired long DNA fragment (Taq, 10 ng E. coli genome, primers Eco1/Eco5 (10 kb), 30 cycles 98°C 5 s–68°C 10 min, 10 μM or 20 μM, only slight without addition)	Reaction time period as fraction of that of no addition (Taq, 100 μM)	Time Period Required (for same amount of amplified product) (Taq, 100 μM complex added, 98°C 5 s–68°C 60 s, 30 cycles (no addition: 120 s, 31 cycles, 4911 s))	Primer amount with which a fragment can still be amplified (Taq, 100 μM complex, primers 2–20 pmol tested, no amplification without addition)	Amount of template DNA at which amplification was still possible (Taq, 100 μM complex, templates 1 pg–1 ng tested, no amplification at 1 pg without addition)	Amplification in low-magnesium reaction mixture (Taq, 0.75 mM magnesium chloride (usual 1.5 mM), 100 μM complex, no amplification without addition)
NCCN.NCCN.NCCN.O.O.O.[Cl][Rh]([Cl])[Cl] [[Rh(H2NCH2CH2NH2)3]Cl3, tris(ethylenediamine)rhodium (III) trichloride•trihydrate]	1.4	2.1	2.5	–	–	–	–	–	–	–
NCCN.NCCN.NCCN.[Cl-].[Cl-].[Cl-].[Co+3] [[Co(H2NCH2CH2NH2)3]Cl3, tris(ethylenediamine)cobalt (III) chloride]	2.6	3.0	–	–	–	–	–	–	–	–
N.N.N.N.N.N.[Cl-].[Cl-].[Cl-].[Co+3] [[Co(NH3)6]Cl3, hexaamminecobalt (III) chloride]	2.3	2.9	–	almost the same level	excellently amplified	about ⅗	2953 s	2 pmol	1 pg	allowed to amplify
